Structures can show the parent of a compound that is named as a salt.
Molecular target: T1, h-5-HT6 receptor (Homo sapiens, UniProt P50406)
T1 construct: expressed in transfected cells
Test: 5-HT6 receptor binding assay (displacement of [3H]-LSD)
Conditions: membranes of HEK293 cells expressing h-5-HT6 receptor, 1 nM [3H]-LSD; read-out: Ki (5HT6)

T1 sequence (P50406 whole entry): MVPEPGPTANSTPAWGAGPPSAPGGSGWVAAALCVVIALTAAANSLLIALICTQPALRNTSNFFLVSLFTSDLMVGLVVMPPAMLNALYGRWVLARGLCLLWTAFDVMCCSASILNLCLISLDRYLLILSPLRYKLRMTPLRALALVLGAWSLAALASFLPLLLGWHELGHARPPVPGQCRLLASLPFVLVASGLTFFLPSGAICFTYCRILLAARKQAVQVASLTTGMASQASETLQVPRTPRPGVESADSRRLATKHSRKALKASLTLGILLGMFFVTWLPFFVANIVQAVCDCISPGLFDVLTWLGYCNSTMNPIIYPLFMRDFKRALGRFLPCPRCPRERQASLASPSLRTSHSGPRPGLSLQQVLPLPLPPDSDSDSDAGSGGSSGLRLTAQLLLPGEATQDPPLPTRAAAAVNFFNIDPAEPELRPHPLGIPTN

Structure (SMILES) | Ki [nM]
COc1ccc(S(=O)(=O)Nc2ccc(OC(F)F)cc2)cc1N1CCN(C)CC1 [Example 95, N-(4-Difluoromethoxy-phenyl)-4-methoxy-3-(4-methyl-piperazin-1-yl)-benzenesulfonamide hydrochloride] | < 10
Cc1ccc(S(=O)(=O)Nc2cccc(OC(F)F)c2)cc1N1CCCNCC1 [Example 96, 3-[1,4]Diazepan-1-yl-N-(3-difluoromethoxy-phenyl)-4-methyl-benzenesulfonamide hydrochloride] | < 50
Cc1ccc(S(=O)(=O)Nc2ccccc2OC(F)F)cc1N1CCCNCC1 [Example 97, 3-[1,4]Diazepan-1-yl-N-(2-difluoromethoxy-phenyl)-4-methyl-benzenesulfonamide hydrochloride] | < 10
Cc1ccc(NS(=O)(=O)c2ccc(C)c(N3CCCNCC3)c2)cc1OC(F)F [Example 98, 3-[1,4]Diazepan-1-yl-N-(3-difluoromethoxy-4-methyl-phenyl)-4-methyl-benzenesulfonamide hydrochloride] | < 50
Cc1ccc(NS(=O)(=O)c2ccc(C)c(N3CCCN(C)CC3)c2)cc1OC(F)F [Example 99, N-(3-Difluoromethoxy-4-methyl-phenyl)-4-methyl-3-(4-methyl-[1,4]diazepan-1-yl)-benzenesulfonamide hydrochloride] | < 500
Cc1ccc(S(=O)(=O)Nc2ccccc2OC(F)F)cc1N1CCCN(C)CC1 [Example 100, N-(2-Difluoromethoxy-phenyl)-4-methyl-3-(4-methyl-[1,4]diazepan-1-yl)-benzenesulfonamide hydrochloride] | < 10
Cc1ccc(S(=O)(=O)Nc2cccc(OC(F)F)c2)cc1N1CCCN(C)CC1 [Example 101, N-(3-Difluoromethoxy-phenyl)-4-methyl-3-(4-methyl-[1,4]diazepan-1-yl)-benzenesulfonamide hydrochloride] | < 10
CCOc1ccc(S(=O)(=O)Nc2ccc(C)cc2OC(F)F)cc1N1CCNCC1 [Example 106, N-(2-Difluoromethoxy-4-methylphenyl)-4-ethoxy-3-piperazin-1-yl benzenesulfonamide] | < 10
